Like-named read-outs stand apart in the source and are kept apart here. Marks after values point to notes of the source that are not given here.
Assays:
M. tuberculosis [1] = experiment: High content assay of intracellular M. tuberculosis growth in infected RAW264.7 macrophages; assay type: cell-based, Mycobacterium tuberculosis H37Rv-LP
Experimental: Compounds were obtained in 384-well plates as 10 mM DMSO stock solutions and tested as described ([Manning et al., 2017]). Briefly, assay plates were prepared in clear bottom, black 384-well plates with 30 μl cRPMI and 0.6 μl compound in columns 3–22 (final concentration of 10 μM compound, 1% DMSO). […] INH and STA were also included in dose response on each plate. RAW264.7 cells were infected with M. tuberculosis DREAM8 as described ([Manning et al., 2017]) at an MOI of 1 for 24 h and extracellular bacteria removed by washing. Cells were recovered using Accumax, harvested, washed and resuspended in serum-free RPMI; 30 μl of infected cells were dispensed into each well at 3,300 cells/well. Plates were incubated for 72 h, 10 μl of 5X SYBR Green I was added and plates were imaged with an ImageXpress Micro High Content Screening System (Molecular Devices) using a ×4 objective and FITC and Texas Red channels. MetaXpress was used to analyze images. The integrated intensity of M. tuberculosis or macrophages was calculated for each well. Growth inhibition was calculated for each test well by normalizing to the average integrated intensity of the DMSO control wells. IC50 was calculated as the compound concentration required to reduce bacterial growth by 50%. TC50 was calculated as the compound concentration required to reduce macrophage viability by 50%.

[2] = HepG2 cytotoxicity (CellTiter-Glo, 72 h); assay type: cell-based, human; settings: human
Experimental: (§1) Cytotoxicity against HepG2 cells was measured after 72 h. Cells were seeded in 384-well plates at 1,800 cells per well. Compounds were added as a 10-point three-fold serial dilution after 24 h (final assay concentration of 1% DMSO). CellTiter-Glo® reagent (Promega) was added and relative luminescence units (RLU) measured. Data were normalized to the DMSO controls. Curves were fitted using the Levenberg–Marquardt algorithm; TC50 was calculated as the compound concentration required to reduce cell viability by 50%.
(§2) We further evaluated cytotoxicity using the HepG2 cell line cultured with either glucose or galactose in the medium (Table 2). HepG2 cells cultured with galactose rely on mitochondrial oxidative phosphorylation rather than glycolysis which increases their susceptibility to mitochondrial toxicants allowing us to identify compounds with mitochondrial toxicity ([Kamalian et al., 2015]).

HepG2 cells = experiment: HepG2 cytotoxicity (CellTiter-Glo, 72 h); assay type: cell-based, human; settings: for selectivity (SI) for HepG2: HepG2 cytotoxicity / intracellular IC50; for HepG2 cytotoxicity TC50 Galactose / HepG2 cytotoxicity TC50 Glucose: human, 72 h
Experimental: as §1, §2

M. tuberculosis [3] = experiment: Minimum inhibitory concentration in liquid medium (axenic culture); assay type: cell-based, Mycobacterium tuberculosis; settings: Mycobacterium tuberculosis; for IC50: read-out: Anti-tubercular activity in axenic culture IC50
RAW264.7 cells [4] = experiment: Macrophage viability in the same high content assay; settings: for selectivity index (SI): HepG2 cells and/or macrophages, cell line not specified; for Intracellular activity Cytotoxicity TC50 / Intracellular RAW TC50: infected RAW264.7 macrophages; for Intracellular activity Cytotoxicity TC50: 72 h; for Intracellular RAW TC50: SAR tables 4-8
RAW264.7 cells [5] = system: RAW264.7 cells
[6] = Mycobacterium tuberculosis, RAW264.7, 72 h, M. tuberculosis in RAW264.7 cells, MOI 1, 72 h, read-out: Intracellular activity Anti-tubercular activity IC50
[7] = in RAW264.7 macrophages, SAR tables 4-8, read-out: Intracellular Mtb IC50
[8] = HepG2 cytotoxicity IC50 Galactose
[9] = HepG2 cytotoxicity IC50 Glucose
[10] = 120 h, extracellular, 5 days, OD590
[11] = 120 h, extracellular, 5 days, OD590, read-out: Anti-tubercular activity in axenic culture IC90
[12] = axenic culture, SAR tables 4-8, read-out: Extracellular IC90
[13] = Mycobacterium tuberculosis, RAW264.7, in RAW264.7 macrophages, SAR tables 4-8, read-out: Intracellular Mtb IC50

Row | Compound | IC50 (M. tuberculosis [1]; [6]) [µM] | IC50 (M. tuberculosis [1]; in RAW264.7 macrophages, SAR tables 4-8, listed as 26, read-out: Intracellular Mtb IC50) [µM] | IC50 (M. tuberculosis [1]; [7]) [µM] | IC50 at 72 h [2, 8] [µM] | IC50 at 72 h [2, 9] [µM] | selectivity (SI) for HepG2 (HepG2 cells) | HepG2 cytotoxicity TC50 Galactose (HepG2 cells) | HepG2 cytotoxicity TC50 Glucose (HepG2 cells) | IC50 (M. tuberculosis [3]; [10]) [µM] | IC90 (M. tuberculosis [3]; [11]) [µM] | IC90 (M. tuberculosis [3]; [12]) [µM] | selectivity index (SI) (RAW264.7 cells [4]) | Intracellular activity Cytotoxicity TC50 (RAW264.7 cells [4]) | Intracellular RAW TC50 (RAW264.7 cells [4]) | cytotoxicity to macrophages (RAW264.7 cells [5]) | activity against intracellular M. tuberculosis (M. tuberculosis [1]) | IC50 (M. tuberculosis [1]; [13]) [µM]
1 | CCCOc1ccc(C(=O)Nc2sc(C)c(C)c2C(N)=O)cc1 [TPN-0073576] | 1.1 ± 0.36 | < 5 | 1 ± 0.4 | 89 ± 5.5 | 83 ± 2.9 | > 80 | 92 ± 7 ^c µM | 83 ± 2.9 ^c µM | > 20 | > 20 | > 20 | > 10 | >100 ^d µM | >100 ^d µM |  |  | 
2 | O=C(Nc1ccc(Cl)cc1)Nc1ccc(Nc2ccccc2)cc1 [TPN-0073077] |  |  |  | > 100 | > 100 |  |  |  |  |  | > 20 |  |  | 68 ± 23 ^b µM | cytotoxic |  | 
3 | Cc1ccc(SCC(=O)Nc2ccc(Br)c(C)c2)cc1 [TPN-0006207] | 6.3 ± 0.3 |  |  | > 100 | > 100 |  | >100 ^b µM | >100 ^b µM | > 20 | > 20 | > 20 |  | >100 ^b µM | >100 ^b µM |  | good intracellular activity | 6.3 ± 0.3
4 | OCc1cn(-c2ccc(Cl)cc2)nc1-c1ccc(Cl)cc1 [TPN-0073562] | 2.9 ± 0.52 |  |  | 31 ± 2.2 | 31 ± 2.1 |  | 31 ± 1.9 ^e µM | 31 ± 2.1 ^c µM | 12 ± 0.5 | 19 ± 1.5 | 19 ± 1.5 |  | 16 ± 11 ^c µM | 16 ± 11 ^c µM |  |  | 2.9 ± 0.5
5 | Nc1c(C(=O)N2CCCC2)sc2nc(-c3ccccc3)ccc12 [TPN-0073027] | 5.8 ± 2.1 |  | 6.8 ± 3.3 | 64 ± 12 | 72 ± 22 |  | 64 ± 10 ^e µM | 82 ± 25 ^d µM | > 20 | > 20 | > 20 |  | >100e µM | >100 ^g µM |  |  | < 10
6 | COc1ccc(OCC(=O)Nc2sc3c(c2C(=O)NC2CCS(=O)(=O)C2)CCCC3)cc1 (stereo not shown) [TPN-0073584] | 5.1 ± 1.7 |  |  | > 100 | > 100 | 20 | >100 ^c µM | >100 ^c µM | > 20 | > 20 | > 20 | > 10 | >100 ^b µM | >100 ^c µM |  |  | 5.1 ± 1.7
